Results as given in PMC10044120, “Potent and selective covalent inhibition of the papain-like protease from SARS-CoV-2” (Nature Communications, 2023).
“And” between values parts separate entries of the source, which are not always exact repeats. Identical values can stand only once.

Tests used:
Format in all cases: cell-based
[1] = system: SARS-CoV-2 Delta (B.1.617.2); experiment: CPE assay, neutral red, Vero E6 cells with 2 μM CP-100356, Delta
[2] = system: SARS-CoV-2 Delta (B.1.617.2); experiment: microbe, parasite or virus in culture
[3] = system: SARS-CoV-2 Omicron (B.1.1.529); experiment: microbe, parasite or virus in culture

## COC(=O)/C=C/C(=O)NNC(=O)CCc1ccccc1C(=O)N[C@H](C)c1cccc2ccccc12 [Compound 7, methyl(R,E)-4-(2-(3-(2-((1-(naphthalen-1 yl)ethyl)carbamoyl)phenyl)propanoyl)hydrazineyl)-4-oxobut-2-enoate]
[1]
  Percent Cytopathic Effect (Neutral Red): 49.9% and 76.0% and 99.5% and 99.2%
[2]
  Virus Titer: 4.5 CCID50/mL (Log10) and 4.7 CCID50/mL (Log10) and 5.0 CCID50/mL (Log10)
[3]
  Virus Titer: 2.5 CCID50/mL (Log10) and 3.0 CCID50/mL (Log10)
